# Entries after “also recorded” stand apart in the source; their conditions may differ. Read-outs that look alike come from different tables or passages of the source. Non-standard residues stand in square brackets, D forms with d.
# Key:
# SMVT [1] = biological target: T1, SMVT (Homo sapiens, UniProt Q9Y289); details: read-out: Ki, competitive inhibition of RI-K(biotin)-Tat9 transport; Caco-2, inhibitors at 10 and 20 μM
# T1 sequence (Q9Y289 1-635): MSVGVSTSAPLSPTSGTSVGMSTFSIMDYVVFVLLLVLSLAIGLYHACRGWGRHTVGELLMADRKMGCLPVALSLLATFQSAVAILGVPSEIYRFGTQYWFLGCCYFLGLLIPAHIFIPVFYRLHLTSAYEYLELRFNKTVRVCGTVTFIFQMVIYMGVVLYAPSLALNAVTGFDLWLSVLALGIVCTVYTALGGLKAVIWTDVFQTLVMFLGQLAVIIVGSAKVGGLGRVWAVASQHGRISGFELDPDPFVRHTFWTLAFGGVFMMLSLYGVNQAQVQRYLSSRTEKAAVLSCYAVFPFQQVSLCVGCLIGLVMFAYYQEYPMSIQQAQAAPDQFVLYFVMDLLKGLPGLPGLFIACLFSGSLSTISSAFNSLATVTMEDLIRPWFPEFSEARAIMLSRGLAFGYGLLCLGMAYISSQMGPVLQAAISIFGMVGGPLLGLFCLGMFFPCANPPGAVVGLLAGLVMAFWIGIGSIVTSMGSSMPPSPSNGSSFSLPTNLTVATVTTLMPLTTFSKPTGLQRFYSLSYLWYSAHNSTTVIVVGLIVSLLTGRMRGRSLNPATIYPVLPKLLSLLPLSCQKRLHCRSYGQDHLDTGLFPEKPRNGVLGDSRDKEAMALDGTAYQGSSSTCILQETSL
# Source text: [formula] where Pe is the effective permeability of the substrate transported, Cs is the substrate concentration and Pm and Pc represent the passive and carrier-mediated component of the permeability. All data were initially fitted to a 3-parameter model (Pc, Pm, Km for Caco-2 studies, Jmax, Pm, Km for CHO studies). […] The data from inhibition studies were transformed into Lineweaver-Burke plots to determine the nature of the inhibition process (competitive, non-competitive). Subsequently, the inhibition constant (Ki) values were estimated using Dixon plots. Data used for the above plots were weighted using 1/SEM^2 (S.E.M=Standard Error of Mean). The kinetic parameters for CHO cell studies were estimated by performing non-linear regression using the equation J=Jmax*[C]/(Km+[C])+Pm*C, where J is the rate of permeant uptake, Pm is the passive uptake component and [C] is the substrate concentration. Data were weighted using 1/S.E.M^2.
# SMVT [2] = biological target: T1, SMVT; test: Inhibition of substrate uptake in CHO/hSMVT cells by 50 μM SMVT substrates; assay type: in vitro ADME; set-up: expressed in transfected cells; host or cells: CHO cells (ATCC), transient Lipofectamine transfection; plasmid was a gift of Dr. Puttur D. Prasad
# SMVT [3] = biological target: T1, SMVT; details: read-out: Ki, competitive inhibition of biotin-PEG-3400 transport; Caco-2, inhibitors at 10 and 20 μM
# Source text: Data Analysis. The Michaelis-Menten kinetic parameters for the Caco-2 cell monolayer transport studies were estimated by performing weighted non-linear regression with Scientist software (MicroMath, Utah) using the following equation: Pe=Pm+Pc/(1+C/Km), where Pe is the effective permeability of the substrate transported, C is the substrate concentration and Pm and Pc represent the passive and carrier-mediated component of the permeability. The data from inhibition studies were transformed into Lineweaver-Burke plots to determine the nature of the inhibition process (competitive, non-competitive). […] Data used for the above plots were weighted using 1/S.E.M.^2. The kinetic parameters for CHO cell studies were estimated by performing non-linear regression using the equation J=Jmax*[C]/(Km+[C]), where J is the rate of permeant uptake, Jmax is the maximal uptake velocity and [C] is the substrate concentration. Data were weighted using 1/S.E.M.^2. Statistical analyses were performed using Jandel SigmaStat, version 2.03. One-way analysis of variance was used to test the difference in the mean values of uptake using p<0.05 as the significance level for all tests.
# CHO/pSPORT cells = test: Non-specific uptake in vector-transfected control CHO/pSPORT cells
# Experimental: CHO Cell Uptake Studies CHO cells transiently transfected with hSMVT (CHO/hSMVT) were washed twice with 25 mM uptake buffer, containing 25 mM Hepes/Tris pH 7.5, 140 mM NaCl, 5.4 mM KCl, 1.8 CaCl2, 0.8 mM MgSO4 and 5 mM glucose, approximately 48 hours post-transfection. Subsequently, the cells were incubated with the permeant at 37° C. for 10 minutes. Uptake was stopped by washing the cells thrice with ice-cold buffer. Non-specific uptake was measured in parallel experiments with the control pSPORT vector-transfected CHO cells. Finally, the cells were solubilized by 0.1% v/v Triton X-100, and 0.6 ml was used for scintillation counting. […] Bovine serum albumin was used as the standard.
# CHO Cell Uptake Studies CHO cells transiently transfected with hSMVT were washed twice with 25 mM uptake buffer, containing 25 mM Hepes/Tris pH 7.5, 140 mM NaCl, 5.4 mM KCl, 1.8 CaCl2, 0.8 mM MgSO4 and 5 mM glucose. […] Non-specific uptake was measured in parallel experiments with the control pSPORT vector-transfected CHO cells. […] From the remaining volume, 10 μl of solution was taken from each well and protein concentration was determined using the Bio-Rad reagent according to the manufacturer's instructions. […]
# CHO Cell Uptake Studies. […] Non-specific uptake was measured in parallel experiments with the control pSPORT vector-transfected CHO cells. […]
# [4] = biological target: T2, human sodium dependent multivitamin transporter, hSMVT (Homo sapiens, UniProt Q9Y289); test: Uptake in CHO cells transiently transfected with hSMVT (CHO/hSMVT); details: not concentration dependent controls
# T2 sequence (Q9Y289 1-635): T1 sequence (Q9Y289 1-635)
# Experimental: (§1) CHO Cell Uptake Studies CHO cells transiently transfected with hSMVT (CHO/hSMVT) were washed twice with 25 mM uptake buffer, containing 25 mM Hepes/Tris pH 7.5, 140 mM NaCl, 5.4 mM KCl, 1.8 CaCl2, 0.8 mM MgSO4 and 5 mM glucose, approximately 48 hours post-transfection. Subsequently, the cells were incubated with the permeant at 37° C. for 10 minutes. Uptake was stopped by washing the cells thrice with ice-cold buffer. Non-specific uptake was measured in parallel experiments with the control pSPORT vector-transfected CHO cells. Finally, the cells were solubilized by 0.1% v/v Triton X-100, and 0.6 ml was used for scintillation counting. From the remaining volume, 10 μl of solution was taken from each well and protein concentration was determined using the Bio-Rad reagent according to the Bradford technique [M. Bradford, A rapid and sensitive method of quantitation of microgram quantities of protein utilizing the principle of protein-dye binding, Anal. Biochem. 72 (1976) 248]. Bovine serum albumin was used as the standard.
# Parallel uptake experiments were performed using CHO/pSPORT control cells.
# as §1, with “hSMVT” for “hSMVT (CHO/hSMVT)”, “glucose.” for “glucose, approximately 48 hours post-transfection.”, “Washing” for “Uptake was stopped by washing”, “three times” for “thrice”, “buffer stopped drug uptake.” for “buffer.”, “manufacturer's instructions.” for “Bradford technique [M. Bradford, A rapid and sensitive method of quantitation of microgram quantities of protein utilizing the principle of protein-dye binding, Anal. Biochem. 72 (1976) 248].”
# as §1, with “Studies.” for “Studies”, “glucose.” for “glucose, approximately 48 hours post-transfection.”, “manufacturer's instructions.” for “Bradford technique [M. Bradford, A rapid and sensitive method of quantitation of microgram quantities of protein utilizing the principle of protein-dye binding, Anal. Biochem. 72 (1976) 248].”
# [5] = system: bovine brain microvessel endothelial cells (BBMECs); test: Transport (permeability) across BBMEC monolayers, in vitro BBB model
# Experimental: Non-biotinylated PEGs were used in the control studies.
# Isolation and culture of BBMECs. Bovine Brain Microvessel Endothelial Cells (BBMECs) were used as an in vitro model of BBB. BBMECs were isolated from bovine brain by a two-step enzymatic method and the cells were cultured on collagen coated Transwell™ plates or polystyrene plates in an atmosphere of 95% air and 5% CO2 at 37° C. Transendothelial electrical resistance (TEER) and several molecular markers were used to validate the integrity of the cell culture system.
# The cells were cultured on 12-well Transwell™ filters for 7-8 days and transport was evaluated. […] All studies were performed at 37° C.
# Experimental for Caco-2 cell monolayers: Caco-2 Cell Transport Studies An Ussing-type diffusion chamber system (Harvard Apparatus, Natick, Mass.) was used to perform transport studies. The apical solution was a MES Ringer's buffer (pH 6.5) consisting of 114.0 mM NaCl, 5.0 mM KCl, 1.1 mM MgSO4, 1.25 mM CaSO4, and 15 mM 2-(N-morpholino)ethanesulfonic acid (MES). The basolateral solution was a Ringer's buffer (pH 7.4) consisting of 114.0 mM NaCl, 5.0 mM KCl, 1.65 mM Na2HPO4, 0.3 mM NaH2PO4, 25 mM NaHCO3, 1.1 mM MgSO4, and 1.25 mM CaSO4. Both buffers contained 25 mM glucose and were adjusted to 290 mOsm/kg using a vapor pressure osmometer (Wescor Inc, Logan, Utah). For transport experiments using filters with cell monolayers, the inserts were rinsed with Ringer's buffet containing 25 mM glucose three times over a 20 min period at room temperature. The TEER was measured for each monolayer before it was mounted onto the diffusion chamber, which was pre-warmed to 37° C. by placement on the heating blocks. The volume of each half-chamber was 5 ml and the surface area of the Snapwell™ filters available for drug transport was 1 cm^2. […] The donor solution consisted of radiolabeled permeant in the apical buffer [apical (AP) to basolateral (BL) study]. Starting at 30 min, samples were taken from the receptor chamber every 15 min until the end of the experiment (105 min). A minimum of three monolayers was used to determine the permeability of test compound in each study and sample analysis was performed using scintillation counting (Perkin Elmer, Gaithersburg, Md.).
# The Michaelis-Menten kinetic parameters of Caco-2 and CHO cell transport were then estimated using non-linear regression.
# Prior to experimentation, diffusion chambers mounted with the Snapwells™ containing Caco-2 cells were equilibrated at 5° C., 10° C., 15° C., 25° C. and 37° C.
# [formula] where Pe is the effective permeability of the substrate transported, Cs is the substrate concentration and Pm and Pc represent the passive and carrier-mediated component of the permeability. All data were initially fitted to a 3-parameter model (Pc, Pm, Km for Caco-2 studies, Jmax, Pm, Km for CHO studies).
# Caco-2 Cell Transport Studies An Ussing-type diffusion chamber system (Harvard Apparatus, Natick, Mass.) was used to perform transport studies. The apical solution was a MES Ringer's buffer (pH 6.5) consisting of 114.0 mM NaCl, 5.0 mM KCl, 1.1 mM MgSO4, 1.25 mM CaSO4, and 15 mM 2-(N-morpholino)ethanesulfonic acid (MES). The basolateral solution was a Ringer's buffer (pH 7.4) consisting of 114.0 mM NaCl, 5.0 mM KCl, 1.65 mM Na2HPO4, 0.3 mM NaH2PO4, 25 mM NaHCO3, 1.1 mM MgSO4, and 1.25 mM CaSO4. Both buffers contained 25 mM glucose and were adjusted to 290 mOsm/kg using a vapor pressure osmometer (Wescor Inc, Logan, Utah). For transport experiments using filters with cell monolayers, the inserts were rinsed with Ringer's buffer containing 25 mM glucose three times over a 20 min period at room temperature. The TEER was measured for each monolayer before it was mounted onto the diffusion chamber, which was pre-warned to 37° C. by placement on the heating blocks.
compound,measurement,setting,value
N[C@@H](CCCCNC(=O)CCCC[C@@H]1SC[C@@H]2NC(=O)N[C@@H]21)C(=O)O [biocytin],Ki,SMVT [1],3.27 µM
same,inhibition of RI-K(biotin)-Tat9 uptake,"SMVT [2]; 0.1 μM RI-K(biotin)-Tat9, inhibitor 50 μM",significantly inhibited; also recorded: significantly lowered (p<0.001)
same,inhibition of biotin-PEG-3400 uptake,"SMVT [2]; 0.1 μM biotin-PEG-3400, inhibitor 50 μM",significantly (p<0.01) inhibited
same,inhibition of PEG:(RI-K(biotin)-Tat9)8 uptake,"SMVT [2]; 0.1 μM conjugate, inhibitor 50 μM",significantly lower (p<0.05)
same,Ki,SMVT [3],14 µM
N-acetyl-D-Lys-D-Arg-D-Arg-D-Arg-D-Gln-D-Arg-D-Arg-D-Lys-D-Lys-D-Arg-NH2 (Ac-[dK][dR][dR][dR][dQ][dR][dR][dK][dK][dR]-NH2; SMILES CC(=O)N[C@H](CCCCN)C(=O)N[C@H](CCCNC(=N)N)C(=O)N[C@H](CCCNC(=N)N)C(=O)N[C@H](CCCNC(=N)N)C(=O)N[C@H](CCC(N)=O)C(=O)N[C@H](CCCNC(=N)N)C(=O)N[C@H](CCCNC(=N)N)C(=O)N[C@H](CCCCN)C(=O)N[C@H](CCCCN)C(=O)N[C@H](CCCNC(=N)N)C(N)=O) [RI-K-Tat9],uptake in CHO/pSPORT cells,CHO/pSPORT cells,< 1 pmol/mg protein/10 min
same,uptake in CHO/hSMVT cells,[4],< 1 pmol/mg protein/10 min
same,Papp,[5],7.3 ×10⁻⁶ cm/s
PEG-3350 [reference compound],absorptive/effective permeability (Pe),Caco-2 cell monolayers,~1 ×10⁻⁶ cm/s
